Conditions: pH 7.4
For `Nc1nnc2n(CCc3ccccc3)c(=O)c3cc(F)ccc3n12` [Compound 16, 1-Amino-7-fluoro-4-phenethyl-[1,2,4]triazolo[4,3-a]quinazolin-5(4H)-one], the “PAMPA” value was 885 ×10⁻⁶ cm/s. For `O=c1c2cc(F)ccc2n2cnnc2n1CCc1ccccc1` [Compound 18, 7-Fluoro-4-phenethyl-[1,2,4]triazolo[4,3-a]quinazolin-5(4H)-one], the “PAMPA” value was 924 ×10⁻⁶ cm/s. In the case of `CCn1c(=O)c2ccccc2n2c(=S)[nH]nc12` [Compound 20, 4-Ethyl-1-thioxo-2,4-dihydro-[1,2,4]triazolo[4,3-a]quinazolin-5(1H)-one], the “PAMPA” value is reported as 427 ×10⁻⁶ cm/s. With `O=c1c2cc(F)ccc2n2c(=S)[nH]nc2n1CCc1ccccc1` [Compound 40, 7-Fluoro-4-phenethyl-1-thioxo-2,4-dihydro-[1,2,4]triazolo[4,3-a]quinazolin-5(1H)-one] the “PAMPA” value was 77.0 ×10⁻⁶ cm/s. In the case of `O=c1c2cc(Br)ccc2n2c(=S)[nH]nc2n1CCc1ccccc1` [Compound 41, 7-Bromo-4-phenethyl-1-thioxo-2,4-dihydro-[1,2,4]triazolo[4,3-a]quinazolin-5(1H)-one], the “PAMPA” value is reported as 162 ×10⁻⁶ cm/s. In the case of `CC(=O)Nc1ccc2c(c1)c(=O)n(CCc1ccccc1)c1n[nH]c(=S)n21` [Compound 44, N-(5-Oxo-4-phenethyl-1-thioxo-1,2,4,5-tetrahydro-[1,2,4]-triazolo[4,3-a]quinazolin-7-yl)acetamide], the “PAMPA” value is reported as 253 ×10⁻⁶ cm/s. In the case of `CN(C)c1ccc2c(c1)c(=O)n(CCc1ccccc1)c1n[nH]c(=S)n21` [Compound 45, 7-(Dimethylamino)-4-phenethyl-1-thioxo-2,4-dihydro-[1,2,4]-triazolo[4,3-a]quinazolin-5(1H)-one], the “PAMPA” value is reported as 356 ×10⁻⁶ cm/s. With `O=c1c2ccc(F)cc2n2c(=S)[nH]nc2n1CCc1ccccc1` [Compound 47, 8-Fluoro-4-phenethyl-1-thioxo-2,4-dihydro-[1,2,4]triazolo[4,3-a]quinazolin-5(1H)-one] the “PAMPA” value was 91.0 ×10⁻⁶ cm/s. With `O=c1c2cccc(F)c2n2c(=S)[nH]nc2n1CCc1ccccc1` [Compound 48, 9-Fluoro-4-phenethyl-1-thioxo-2,4-dihydro-[1,2,4]triazolo[4,3-a]quinazolin-5(1H)-one] the “PAMPA” value was 141 ×10⁻⁶ cm/s. In the case of `O=c1c2ccncc2n2c(=S)[nH]nc2n1CCc1ccccc1` [Compound 50, 4-Phenethyl-1-thioxo-2,4-dihydropyrido[4,3-e][1,2,4]triazolo-[4,3-a]pyrimidin-5(1H)-one], the “PAMPA” value is reported as 202 ×10⁻⁶ cm/s. With `O=c1c2cc(F)ccc2n2c(=S)[nH]nc2n1Cc1ccccc1` [Compound 52, 4-Benzyl-7-fluoro-1-thioxo-2,4-dihydro-[1,2,4]triazolo[4,3-a]-quinazolin-5(1H)-one] the “PAMPA” value was 841 ×10⁻⁶ cm/s. In the case of `O=c1c2cc(Cl)ccc2n2c(=S)[nH]nc2n1CCC(F)(F)F` [Compound 55, 7-Chloro-1-thioxo-4-(3,3,3-trifluoropropyl)-2,4-dihydro-[1,2,4]-triazolo[4,3-a]quinazolin-5(1H)-one], the “PAMPA” value is reported as 257 ×10⁻⁶ cm/s. For `CNC(=S)N1CN(CCc2ccccc2)C(=O)c2cc(F)ccc21` [Compound 62, 6-Fluoro-N-methyl-4-oxo-3-phenethyl-3,4-dihydroquinazoline-1(2H)-carbothioamide], the “PAMPA” value was 161 ×10⁻⁶ cm/s. With `O=c1c2cc(F)ccc2n2c(=S)[nH]nc2n1CCCO` [Compound 66, 7-Fluoro-4-(3-hydroxypropyl)-1-thioxo-2,4-dihydro-[1,2,4]-triazolo[4,3-a]quinazolin-5(1H)-one] the “PAMPA” value was 222 ×10⁻⁶ cm/s. With `CC(CN(C)C)n1c(=O)c2cc(F)ccc2n2c(=S)[nH]nc12` (stereo not drawn) [Compound 71, 4-(1-(Dimethylamino)propan-2-yl)-7-fluoro-1-thioxo-2,4-dihydro-[1,2,4]triazolo[4,3-a]quinazolin-5(1H)-one] the “PAMPA” value was 186 ×10⁻⁶ cm/s. For `CC(=O)NCCCn1c(=O)c2cc(F)ccc2n2c(=S)[nH]nc12` [Compound 73, N-(3-(7-Fluoro-5-oxo-1-thioxo-1,2-dihydro-[1,2,4]triazolo[4,3-a]-quinazolin-4(5H)-yl)propyl)acetamide], the “PAMPA” value was 18.0 ×10⁻⁶ cm/s. With `O=C(NCCCn1c(=O)c2cc(F)ccc2n2c(=S)[nH]nc12)c1ccccc1` [Compound 74, N-(3-(7-Fluoro-5-oxo-1-thioxo-1,2-dihydro-[1,2,4]triazolo[4,3-a]-quinazolin-4(5H)-yl)propyl)benzamide] the “PAMPA” value was 267 ×10⁻⁶ cm/s. In the case of `O=c1c2cc(F)ccc2n2c(=S)[nH]nc2n1CC1CC1` [Compound 79, 4-(Cyclopropylmethyl)-7-fluoro-1-thioxo-2,4-dihydro-[1,2,4]-triazolo[4,3-a]quinazolin-5(1H)-one], the “PAMPA” value is reported as 46.0 ×10⁻⁶ cm/s. With `O=c1c2cc(F)ccc2n2c(=S)[nH]nc2n1CCc1ccc(Cl)cc1` [Compound 82, 4-(4-Chlorophenethyl)-7-fluoro-1-thioxo-2,4-dihydro-[1,2,4]-triazolo[4,3-a]quinazolin-5(1H)-one] the “PAMPA” value was under 1 ×10⁻⁶ cm/s. For `O=c1c2cc(F)ccc2n2c(=S)[nH]nc2n1CCc1cccnc1` [Compound 84, 7-Fluoro-4-(2-(pyridin-3-yl)ethyl)-1-thioxo-2,4-dihydro-[1,2,4]-triazolo[4,3-a]quinazolin-5(1H)-one], the “PAMPA” value was under 1 ×10⁻⁶ cm/s. With `CC(C)(C)OC(=O)N1CC(CCn2c(=O)c3cc(F)ccc3n3c(=S)[nH]nc23)C1` [Compound 86, tert-Butyl 3-(2-(7-fluoro-5-oxo-1-thioxo-1,2-dihydro-[1,2,4]-triazolo[4,3-a]quinazolin-4(5H)-yl)ethyl)azetidine-1-carboxylate] the “PAMPA” value was 229 ×10⁻⁶ cm/s. In the case of `O=c1c2cc(F)ccc2n2c(=S)[nH]nc2n1CCN1CCCCC1` [Compound 88, 7-Fluoro-4-(2-(piperidin-1-yl)ethyl)-1-thioxo-2,4-dihydro-[1,2,4]-triazolo[4,3-a]quinazolin-5(1H)-one], the “PAMPA” value is reported as 358 ×10⁻⁶ cm/s. For `O=c1c2cc(F)ccc2n2c(=S)[nH]nc2n1CCN1CCC(F)(F)CC1` [Compound 89, 4-(2-(4,4-Difluoropiperidin-1-yl)ethyl)-7-fluoro-1-thioxo-2,4-di-hydro-[1,2,4]triazolo[4,3-a]quinazolin-5(1H)-one], the “PAMPA” value was 234 ×10⁻⁶ cm/s. For `O=c1c2cc(F)ccc2n2c(=S)[nH]nc2n1CCN1CCOCC1` [Compound 90, 7-Fluoro-4-(2-morpholinoethyl)-1-thioxo-2,4-dihydro-[1,2,4]-triazolo[4,3-a]quinazolin-5(1H)-one], the “PAMPA” value was 67.0 ×10⁻⁶ cm/s. For `O=c1c2cc(F)ccc2n2c(=S)[nH]nc2n1CCC1CCC(F)(F)CC1` [Compound 93, 4-(2-(4,4-Difluorocyclohexyl)ethyl)-7-fluoro-1-thioxo-2,4-dihydro-[1,2,4]triazolo[4,3-a]quinazolin-5(1H)-one], the “PAMPA” value was 201 ×10⁻⁶ cm/s. For `CC(C)(C)OC(=O)NCCCCCC(=O)NCCCn1c(=O)c2cc(F)ccc2n2c(=S)[nH]nc12` [Compound 101, tert-Butyl (6-((3-(7-fluoro-5-oxo-1-thioxo-1,2-dihydro-[1,2,4]-triazolo[4,3-a]quinazolin-4(5H)-yl)propyl)amino)-6-oxohexyl)-carbamate], the “PAMPA” value was 405 ×10⁻⁶ cm/s. With `O=C(O)CCC(=O)NCCCn1c(=O)c2cc(F)ccc2n2c(=S)[nH]nc12` [Compound 106, 4-((3-(7-Fluoro-5-oxo-1-thioxo-1,2-dihydro-[1,2,4]triazolo[4,3-a]quinazolin-4(5H)-yl)propyl)amino)-4-oxobutanoic Acid] the “PAMPA” value was under 1 ×10⁻⁶ cm/s. With `NS(=O)(=O)CCCC(=O)NCCCn1c(=O)c2cc(F)ccc2n2c(=S)[nH]nc12` [Compound 107, N-(3-(7-Fluoro-5-oxo-1-thioxo-1,2-dihydro-[1,2,4]triazolo[4,3-a]-quinazolin-4(5H)-yl)propyl)-4-sulfamoylbutanamide] the “PAMPA” value was 3.0 ×10⁻⁶ cm/s. For `O=C(NCCCn1c(=O)c2cc(F)ccc2n2c(=S)[nH]nc12)C1CCCC1` [Compound 108, N-(3-(7-Fluoro-5-oxo-1-thioxo-1,2-dihydro-[1,2,4]triazolo[4,3-a]-quinazolin-4(5H)-yl)propyl)cyclopentanecarboxamide], the “PAMPA” value was 155 ×10⁻⁶ cm/s. With `CC(C)(C)OC(=O)NC1CCC(C(=O)NCCCn2c(=O)c3cc(F)ccc3n3c(=S)[nH]nc23)CC1` (stereo not drawn) [Compound 110, tert-Butyl (4-((3-(7-fluoro-5-oxo-1-thioxo-1,2-dihydro-[1,2,4]-triazolo[4,3-a]quinazolin-4(5H)-yl)propyl)carbamoyl)cyclohexyl)-carbamate] the “PAMPA” value was 330 ×10⁻⁶ cm/s. In the case of `O=C(NCCCn1c(=O)c2cc(F)ccc2n2c(=S)[nH]nc12)C1CCOCC1` [Compound 115, N-(3-(7-Fluoro-5-oxo-1-thioxo-1,2-dihydro-[1,2,4]triazolo[4,3-a]-quinazolin-4(5H)-yl)propyl)tetrahydro-2H-pyran-4-carboxamide], the “PAMPA” value is reported as 8.0 ×10⁻⁶ cm/s. In the case of `CN1CCN(CC(=O)NCCCn2c(=O)c3cc(F)ccc3n3c(=S)[nH]nc23)CC1` [Compound 117, N-(3-(7-Fluoro-5-oxo-1-thioxo-1,2-dihydro-[1,2,4]triazolo[4,3-a]-quinazolin-4(5H)-yl)propyl)-2-(4-methylpiperazin-1-yl)acetamide], the “PAMPA” value is reported as under 1 ×10⁻⁶ cm/s. With `O=C(CN1CCOCC1)NCCCn1c(=O)c2cc(F)ccc2n2c(=S)[nH]nc12` [Compound 118, N-(3-(7-Fluoro-5-oxo-1-thioxo-1,2-dihydro-[1,2,4]triazolo[4,3-a]-quinazolin-4(5H)-yl)propyl)-2-morpholinoacetamide] the “PAMPA” value was under 1 ×10⁻⁶ cm/s. In the case of `O=C(Cc1ccccc1)NCCCn1c(=O)c2cc(F)ccc2n2c(=S)[nH]nc12` [Compound 120, N-(3-(7-Fluoro-5-oxo-1-thioxo-1,2-dihydro-[1,2,4]triazolo[4,3-a]-quinazolin-4(5H)-yl)propyl)-2-phenylacetamide], the “PAMPA” value is reported as 248 ×10⁻⁶ cm/s. In the case of `O=C(Cc1cccc(F)c1)NCCCn1c(=O)c2cc(F)ccc2n2c(=S)[nH]nc12` [Compound 122, N-(3-(7-Fluoro-5-oxo-1-thioxo-1,2-dihydro-[1,2,4]triazolo[4,3-a]-quinazolin-4(5H)-yl)propyl)-2-(3-fluorophenyl)acetamide], the “PAMPA” value is reported as 364 ×10⁻⁶ cm/s. With `O=C(Cc1cccc(Cl)c1)NCCCn1c(=O)c2cc(F)ccc2n2c(=S)[nH]nc12` [Compound 124, 2-(3-Chlorophenyl)-N-(3-(7-fluoro-5-oxo-1-thioxo-1,2-dihydro-[1,2,4]triazolo[4,3-a]quinazolin-4(5H)-yl)propyl)acetamide] the “PAMPA” value was 861 ×10⁻⁶ cm/s.

From publication PMC7769008 (Journal of medicinal chemistry, 2020)
